For assay [1], the target named is T1, HCV NS3/4A protease complex, BMS strain (genotype 1a) (UniProt P27958, species not given/STRAIN_BMS).
T1 construct: DNA encoding the recombinant HCV NS3/4A protease complex (amino acids 1027 to 1711) for these strains [given for H77 and J4L6S only]; These are given only for the H77 and J4L6S constructs
In words: FRET peptide assay to monitor HCV NS3/4A proteolytic activity (BMS strain). Type of assay: biochemical. The note with it: NS3/4A BMS strain, read-out: IC50 (range or value). From the text:
HCV NS3 protease complexes, derived from the BMS strain, H77 strain or J4L6S strain, were generated, as described below. These purified recombinant proteins were generated for use in a homogeneous assay (see below) to provide an indication of how effective compounds of the present disclosure would be in inhibiting HCV NS3 proteolytic activity.
Serum from an HCV-infected patient was obtained from Dr. T. Wright, San Francisco Hospital. An engineered full-length cDNA (compliment deoxyribonucleic acid) template of the HCV genome (BMS strain) was constructed from DNA fragments obtained by reverse transcription-PCR (RT-PCR) of serum RNA (ribonucleic acid) and using primers selected on the basis of homology between other genotype 1a strains. From the determination of the entire genome sequence, a genotype 1a was assigned to the HCV isolate according to the classification of Simmonds et al. (See P Simmonds, K A Rose, S Graham, S W Chan, F McOmish, B C Dow, E A Follett, P L Yap and H Marsdeni, J. Clin. Microbiol., 31(6):1493-1503 (1993)). […] The infectious clones, H77 (1a genotype) and J4L6S (1b genotype) were obtained from R. Purcell (NIH) and the sequences are published in Genbank (AAB67036, see Yanagi, M., Purcell, R. H., Emerson, S. U. and Bukh, J. Proc. Natl. Acad. Sci. U.S.A. 94(16):8738-8743 (1997); AF054247, see Yanagi, M., St Claire, M., Shapiro, M., Emerson, S. U., Purcell, R. H. and Bukh, J, Virology 244 (1), 161-172. (1998)).
The H77 and J4L6S strains were used for production of recombinant NS3/4A protease complexes. DNA encoding the recombinant HCV NS3/4A protease complex (amino acids 1027 to 1711) for these strains were manipulated as described by P. Gallinari et al. (see Gallinari P, Paolini C, Breruian D, Nardi C, Steinlkuhler C, De Francesco R. Biochemistry. 38(17);5620-32, (1999)). Briefly, a three-lysine solubilizing tail was added at the 3′-end of the NS4A coding region. The cysteine in the P1 position of the NS4A-NS4B cleavage site (amino acid 1711) was changed to a glycine to avoid the proteolytic cleavage of the lysine tag. Furthermore, a cysteine to serine mutation was introduced by PCR at amino acid position 1454 to prevent the autolytic cleavage in the NS3 helicase domain. The variant DNA fragment was cloned in the pET21b bacterial expression vector (Novagen) and the NS3/4A complex was expressed in Escherichia. coli strain BL21 (DE3) (Invitrogen) following the protocol described by P. Gallinari et al. (see Gallinari P, Breinan D, Nardi C, Brunetti M, Tomei L, Steinkuhler C, De Francesco R., J Virol. 72(8):6758-69 (1998)) with modifications. Briefly, the NS3/4A protease complex expression was induced with 0.5 millimolar (mM) Isopropyl β-D-1-thiogalactopyranoside (IPTG) for 22 hours (h) at 20° C. A typical fermentation (1 Liter (L)) yielded approximately 10 grams (g) of wet cell paste. The cells were resuspended in lysis buffer (10 mL/g) consisting of 25 mM N-(2-Hydroxyethyl)Piperazine-N′-(2-Ethane Sulfonic acid) (HEPES), pH 7.5, 20% glycerol, 500 mM Sodium Chloride (NaCl), 0.5% Triton X-100, 1 microgram/milliliter (“μg/mL”) lysozyme, 5 mM Magnesium Chloride (MgCl2), 1 μg/ml DnaseI, 5mM β-Mercaptoethanol (βME), Protease inhibitor-Ethylenediamine Tetraacetic acid (EDTA) free (Roche), homogenized and incubated for 20 minutes (min) at 4° C. The homogenate was sonicated and clarified by ultra-centrifugation at 235000 g for 1 hour (h) at 4° C. Imidazole was added to the supernatant to a final concentration of 15 mM and the pH adjusted to 8.0. The crude protein extract was loaded on a Nickel-Nitrilotriacetic acid (Ni-NTA) column pre-equilibrated with buffer B (25 mM HEPES, pH 8.0, 20% glycerol, 500 mM NaCl, 0.5% Triton X-100, 15 mM imidazole, 5 mM βMB). The sample was loaded at a flow rate of 1 mL/min. The column was washed with 15 column volumes of buffer C (same as buffer B except with 0.2% Triton X-100). The protein was eluted with 5 column volumes of buffer D (same as buffer C except with 200 mM Imidazole). […]

For assay [2], the system named is HCV replicon (strain 1b) in HUH-7 cells. Description: HCV replicon FRET assay. In kind it is cell-based. The note with it: Hepatitis C virus, Huh-7, HCV replicon, read-out: EC50 (range or value). From the text:
An HCV replicon whole cell system was established as described by Lohmann V, Korner F, Koch J, Herian U, Theilmann L, Bartenschlager R., Science 285(5424):110-3 (1999). This system enabled us to evaluate the effects of our HCV Protease compounds on HCV RNA replication. Briefly, using the HCV strain 1b sequence described in the Lohmann paper (Assession number: AJ238799), an HCV cDNA was synthesized by Operon Technologies, Inc. (Alameda, Calif.), and the full-length replicon was then assembled in plasmid pGem9zf(+) (Promega, Madison, Wis.) using standard molecular biology techniques. The replicon consists of (i) the HCV 5′ UTR fused to the first 12 amino acids of the capsid protein, (ii) the neomycin phosphotransferase gene (neo), (iii) the IRES from encephalomyocarditis virus (EMCV), and (iv) HCV NS3 to NS5B genes and the HCV 3′ UTR. Plasmid DNAs were linearized with ScaI and RNA transcripts were synthesized in vitro using the T7 MegaScript transcription kit (Aibion, Austin, Tex.) according to manufacturer's directions. In vitro transcripts of the cDNA were transfected into the human hepatoma cell line, HUH-7. […] Resulting cell lines were characterized for positive and negative strand RNA production and protein production over time.
The HCV replicon FRET assay was developed to monitor the inhibitory effects of compounds described in the disclosure on NCV viral replication. HUH-7 cells, constitutively expressing the HCV replicon, were grown in Dulbecco's Modified Eagle Media (DMEM) (Gibco-BRL) containing 10% Fetal calf serum (FCS) (Sigma) and 1 mg/ml G418 (Gibco-BRL). Cells were seeded the night before (1.5×10^4 cells/well) in 96-well tissue-culture sterile plates. Compound and no compound controls were prepared in DMEM containing 4% FCS, 1:100 Penicillin/Streptomysin (Gibco-BRL), 1:100 L-glutamine and 5% DMSO in the dilution plate (0.5% DMSO final concentration in the assay). Compound/DMSO mixes were added to the cells and incubated for 4 days at 37° C. After 4 days, cells were first assessed for cytotoxicity using alamar Blue (Trek Diagnotstic Systems) for a CC50 reading. The toxicity of compound (CC50) was determined by adding 1/10th volume of alamar Blue to the media incubating the cells. After 4 h, the fluorescence signal from each well was read, with an excitation wavelength at 530 nm and an emission wavelength of 580 nm, using the Cytofluor Series 4000 (Perspective Biosystems). Plates were then rinsed thoroughly with Phosphate-Buffered Saline (PBS) (3 times 150 μl).

Read-outs that look alike come from different tables or passages of the source.

T1 sequence (P27958 1027-1657, stated change not applied, one chain of several): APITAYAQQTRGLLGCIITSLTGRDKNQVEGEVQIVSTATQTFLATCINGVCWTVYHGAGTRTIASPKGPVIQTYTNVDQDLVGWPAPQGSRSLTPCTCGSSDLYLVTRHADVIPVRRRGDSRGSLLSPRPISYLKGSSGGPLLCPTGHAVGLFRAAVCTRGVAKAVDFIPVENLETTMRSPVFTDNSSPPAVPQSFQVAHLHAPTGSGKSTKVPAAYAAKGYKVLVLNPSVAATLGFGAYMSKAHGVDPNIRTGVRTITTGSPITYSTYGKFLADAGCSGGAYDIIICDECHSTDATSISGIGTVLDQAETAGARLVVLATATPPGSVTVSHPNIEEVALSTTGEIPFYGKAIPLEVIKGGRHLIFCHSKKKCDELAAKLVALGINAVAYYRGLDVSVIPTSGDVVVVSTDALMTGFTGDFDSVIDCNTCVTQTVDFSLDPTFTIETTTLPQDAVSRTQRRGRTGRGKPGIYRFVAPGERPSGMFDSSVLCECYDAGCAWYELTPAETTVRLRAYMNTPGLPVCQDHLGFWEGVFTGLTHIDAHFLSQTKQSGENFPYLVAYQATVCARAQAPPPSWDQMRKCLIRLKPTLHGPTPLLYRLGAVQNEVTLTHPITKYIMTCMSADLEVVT

Take `C=C[C@@H]1C[C@]1(NC(=O)[C@@H]1C[C@@H](Oc2cc(-c3cccs3)cc(-c3ccccc3)n2)CN1C(=O)C(Nc1cc(C)cc(C)n1)C(C)C)C(=O)NS(=O)(=O)C1CC1` (single isomer, unassigned) [Compound 1A]: the IC50 in assay [1] (value) came out at 14 nM. For the same molecule, in assay [2] (value), the EC50 is 65.3 nM.

On to `C=C[C@@H]1C[C@]1(NC(=O)[C@@H]1C[C@@H](Oc2cc(-c3cccs3)cc(-c3ccccc3)n2)CN1C(=O)C(Nc1cc(C)cc(C)n1)C(C)C)C(=O)NS(=O)(=O)C1CC1` (single isomer, unassigned) [Compound 1B], for which the IC50 in assay [1] (activity range) lay within 20 to 200 nM. Moreover, the EC50 in assay [2] (activity range) fell in the range of 100 to 1000 nM.

On to `C=C[C@@H]1C[C@]1(NC(=O)[C@@H]1C[C@@H](OC(=O)N2Cc3cccc(F)c3C2)CN1C(=O)C(Nc1cc(C)cc(C)n1)C(C)C)C(=O)NS(=O)(=O)C1CC1` (single isomer, unassigned) [Compound 2B], for which, in assay [1] (value), the half-inhibitory concentration (IC50) stood at 135 nM. For the same molecule, the EC50 in assay [2] (value) is 3480 nM.

For `C=C[C@@H]1C[C@]1(NC(=O)C1CC(Oc2cc(-c3ccccc3)nc3cc(OC)ccc23)CN1C(=O)[C@@H](Nc1nc(CC)cs1)C(C)(C)C)C(=O)NS(=O)(=O)C1CC1` (stereo partly drawn) [Compound 3], the IC50 in assay [1] (value) turned out to be 4.55 nM. Further, the concentration giving a half-maximal response (EC50) in assay [2] (value) is 14.6 nM.

As to `C=C[C@@H]1C[C@]1(NC(=O)C1CC(Oc2cc(-c3ccccc3)nc3cc(OC)ccc23)CN1C(=O)[C@@H](Nc1nc(C(C)(C)C)cs1)C(C)(C)C)C(=O)NS(=O)(=O)C1CC1` (stereo partly drawn) [Compound 4], in assay [1] (activity range), the IC50 lay in the range of 4 to 20 nM. In addition, the EC50 in assay [2] (activity range) lay in the range of 14 to 100 nM.

Regarding `C=C[C@@H]1C[C@]1(NC(=O)C1CC(Oc2cc(-c3ccccc3)nc3cc(OC)ccc23)CN1C(=O)[C@@H](Nc1nc(C(F)(F)F)cs1)C(C)(C)C)C(=O)NS(=O)(=O)C1CC1` (stereo partly drawn) [Compound 5], the IC50 in assay [1] (activity range) lay within 4 to 20 nM. Also, the concentration for a half-maximal effect (EC50) in assay [2] (activity range) lay in the range of 14 to 100 nM.

These data come from patent US20090285774A1, “Hepatitis C Virus Inhibitors” (Bristol-Myers Squibb Company, priority 2008, published 2009).
